Legend:
[1] = cited from earlier work; for Log K1 with thorium(IV): ligands of increasing denticity; for log β110 with Th: literature constant used for comparison and in the refinement; for log β111 with Th: protonated 1:1 Th complex, constant included in the refinement
[2] = Th(IV) spectrophotometric EDTA competition titration (solution thermodynamics); conditions: for pM value (negative logarithm of the free metal concentration): Th(IV); for log β110 (cumulative stability constant) with Th(IV): 25° C., 0.1 M KCl, 5% DMSO, βmlh for mM+lL+hH ⇄ MmLlHh
Description: All spectrophotometric titrations were carried out with constant stirring and a blanket of argon flow in a jacketed cell connected to a recirculating water bath to maintain the temperature at 25° C. All solutions contained 0.1 M KCl with 5% DMSO (v/v), for consistency with titrations where DMSO was used to ensure solubility. The ligand was added as a 50 mM DMSO stock solution, and Th(IV) as a standardized 10 mM stock solution in nitric acid (79 mM). The HCl and KOH solutions were prepared by dilution of Dilut-It (J. T. Baker) concentrated solutions with degassed Millipore water containing 5% DMSO, to maintain the DMSO concentration constant throughout the titration. The 0.1 M HCl solution was standardized by titration of Tris using bromocresol green as an indicator, and the 0.1 M KOH solution was standardized by titration of KHP using phenolphthalein as an indicator. The glass electrode (Nova Analytics Pinnacle) used for the pH measurements was calibrated by adding 2.000 mL 0.1 M HCl (5% DMSO) to 50.0 mL 0.1 M KCl (5% DMSO), and titrating the solution to pH 11.6 with 0.1 M KOH (5% DMSO). The titration was analyzed using the program GLEE to refine for 8 and the slope. For low pH titrations, a strong acid calibration was performed by titrating 50.0 mL 0.1 M KCl with 5% (v/v) DMSO with 0.1 M HCl to pH 1.8. The data were analyzed in an Excel spreadsheet using the SOLVER function to refine for Σ° and the slope. Metrohm Brinkmann 665 Dosimat instruments were the automated burettes used to dispense the titrant, the pH meter was a Fisher Accumet AR 15, and the UV-Vis spectrometer a Hewlett-Packard 8452A. The computer program Labview was the interface from which all these components were orchestrated to run the titrations. A value of −14.20 was used as the pKw to account for the DMSO content.
50 mL solutions (5% DMSO) of 50 μM ligand and 20 equivalents (1 mM) each of MES, HEPES, and CHES, were titrated forward and backward between pH 1.9 and 12.7 with standardized 0.1 M KOH and 0.1 M HCl. The data points were collected at constant increments of 0.05 pH units at pH 1.9-11.5, with an equilibration time of 90-500 sec following titrant additions and a 10 min. delay between successive pH readings. Titration data above pH 11.5 was collected at constant increments of 0.10 pH units, to minimize the time at which the electrode is exposed to strongly basic conditions. All absorbance measurements used in the refinement were no more than 1.0 absorbance units. Spectra from 300-450 nm were analyzed (simultaneously) in the program pHAb. Titrations for constants reported with a standard deviation were performed in triplicate (the standard deviation is between individually refined values for each titration).
50 mL solutions of 50 μM ligand, 50 μM Th(IV), and 500 μM EDTA (Sigma Aldrich) or DTPA (Pharm-Eco) were titrated forward and backward with standardized 0.1 M KOH and 0.1 M HCl. The data points were collected at constant increments of 0.05 pH units, with an equilibration time of 90-500 sec following titrant additions and a 20-30 min delay between successive pH readings. All absorbance measurements used in the refinement were no more than 1.1 absorbance units. Spectra from 300-450 nm were analyzed (simultaneously) in the program pHAb. The following values for the log β for the formation of Th hydroxides were included in the refinement: [ThOH]^3+, −2.5; [Th(OH)2]^2+, −6.2; Th(OH)4, −17.4; [Th2(OH)2]^6+, −5.9; [Th2(OH)3]^5+, −6.8; [Th4(OH)8]^8+, −20.4; [Th4(OH)12]^4+, −26.6; [Th4(OH)14]^2+, −36.8; [Th4(OH)15]^+, −36.8. The following stability constants for Th with EDTA (DTPA) were also included: log β011, 10.17 (10.45); log β012, 16.28 (18.98); log β013, 18.96 (23.26); log β014, 22.46 (25.91); log β015, 22.46 (27.73); log β110, 23.2 (28.78); log β111, 25.18 (30.94). Spectra of the free ligand, refined from the ligand titrations, were set constant in the refinement as well.

[3] = cited from earlier work; for log β011: m=0, l=1, h=1 (ligand protonation), printed among stability constants for Th; for log β012: m=0, l=1, h=2 (ligand protonation); for log β013: m=0, l=1, h=3 (ligand protonation); for log β014: m=0, l=1, h=4 (ligand protonation); for log β015: m=0, l=1, h=5 (ligand protonation)
[4] = UV-Vis dye (arsenazo III) displacement kinetic experiments; format: binding; conditions: 100 mM HEPES pH 7.4, 100 mM KCl, 25° C., qualitative
Description: Spectra were acquired on an Hewlett-Packard 8453 spectrometer at 25° C. The temperature was controlled by a recirculating water bath connected to a jacketed cell holder. Samples were measured in small volume (50 μL) quartz cuvettes with 1 cm path lengths. Solutions were buffered with 100 mM HEPES at pH 7.4 (at 25° C.) and 100 mM KCl. Complexation of the thorium and dye was performed by combining aqueous stock solutions of standardized Th^4+ in nitric acid (77.9 mM HNO3, pH 1.4, 1 mM) and purified dye (1 mM). The solution was let sit on the bench at room temperature for 30 min, diluted in buffer, and let sit at room temperature for an hour. The absorbance was monitored starting from the addition of ligand, as a solution of DMSO ligand stock solution (5 mM) and buffer (equilibrated for 15 min. beforehand). The A vs. t plots were fit with a first-order decay equation in Origin at wavelengths corresponding to the appearance of free dye (550, 560 nm) and the disappearance of thorium-dye complex (614, 669, 700 nm). The reaction with DOTA was refluxed (and stirred with a magnetic stir bar) and performed on a 3 mL scale (instead of 100 μL) in a 10 mL round-bottom flask, placed in an oil bath, and fitted with a reflux condenser. Aliquots were taken periodically and transferred to a cuvette for UV-Vis spectra acquisition. […]

[5] = Stopped-flow UV-Vis kinetics of direct association with Th(IV); format: binding; conditions: 5 μM Th, 10-25 equivalents of ligand, 100 mM HEPES (pH 7.4), 5% DMSO; average of four experiments
Description: The stopped-flow kinetic experiments were performed using a stopped-flow apparatus equipped with an OLis rapid-scanning monochromator 1000 and a 75 W Xe lamp. Upon electronic activation, the apparatus (powered with a gas source, in this case, Ar) mixes 100 μL of each solution in the two syringes into a mixing chamber. This mixture is flowed into a separate chamber, where the flow is stopped and UV spectra are taken. One syringe contained 10 μM Th(IV) in 77.9 mM HNO3 (pH 1.4), while the other held a solution of 50-300 μM ligand, in 200 mM HEPES (pH 8.3) and 10% DMSO. The 1:1 mixture of these solutions was 5 μM Th, 25-150 μM ligand, 100 mM HEPES (pH 7.4). […] The data were analyzed using the program SpecFit to simultaneously use the absorbance at all of the wavelengths to obtain a second-order rate constant.
The kinetics of the direct association of L with Th(IV) have been elusive thus far due to the presence of various species in solution (as the metal ion can hydrolyze to form various species such as Th(OH)^3+, Th(OH)2^2+, Th4(OH)12^4+, and Th(OH)4, and L has many protonation states) and the small spectral change upon complexation. […] However, UV-Vis kinetics experiments using a stopped-flow apparatus and more intense light source enabled a direct and quantitative assessment of the complexation. […]

[6] = 1 μM metal, 10 μM ligand, pH 7.4

O=C(O)CN(CCN(CCN(CC(=O)O)CC(=O)O)CC(=O)O)CCN(CC(=O)O)CC(=O)O [TTHA]
Log K1 with thorium(IV) [1]: 31.9

CNC(=O)c1ccc(C(=O)NCCCN(CCCCN(CCCNC(=O)c2ccc(C(=O)NC)c(O)c2O)C(=O)c2ccc(C(=O)NC)c(O)c2O)C(=O)c2ccc(C(=O)NC)c(O)c2O)c(O)c1O [3,4,3-LiMeTAM]
pM value (negative logarithm of the free metal concentration) [2, 6]: 39.2
log β110 (cumulative stability constant) with Th(IV) [2]: 56.1

O=C(O)CN(CCO)CCN(CC(=O)O)CC(=O)O [HEDTA]
Log K1 with thorium(IV) [1]: 18.5

O=C(O)CN(CCN(CC(=O)O)CC(=O)O)CC(=O)O [EDTA]
log β011 [3]: 10.17
log β012 [3]: 16.28
log β013 [3]: 18.96
log β014 [3]: 22.46
log β015 [3]: 22.46
Log K1 with thorium(IV) [1]: 25.3
log β110 with Th [1]: 23.2
log β111 with Th [1]: 25.18

CC(=O)CC(C)=O [Acac]
Log K1 with thorium(IV) [1]: 7.85

COCCNC(=O)c1ccc(C(=O)NCCN2CCNC(=O)c3ccc(c(O)c3O)C(=O)NCCN(CCNC(=O)c3ccc(C(=O)NCCOC)c(O)c3O)CCNC(=O)c3ccc(c(O)c3O)C(=O)NCC2)c(O)c1O [phi(2,2)moeTAM, Tren2TAM2[TAM(OMeEtN)]2]
rate of Th(IV) complexation greater than those of DOTA and DTPA [4]: 1-2 orders of magnitudes
second-order rate constant of complexation of Th(IV) [5]: 1.6(3)×10^4 M^−1 s^−1
pM value (negative logarithm of the free metal concentration) [2, 6]: 40.2
pM greater than the pM value for DTPA ([2]; 1 μM metal, 10 μM ligand, pH 7.4, relative to DTPA): 14 orders of magnitude
pM greater than the pM value for ethyl-TAM ([2]; 1 μM metal, 10 μM ligand, pH 7.4, relative to ethyl-TAM): 21 orders of magnitude
log β110 (cumulative stability constant) with Th(IV) [2]: 53.7(5)
log β110 greater than that of DTPA ([2]; relative to DTPA (28.78)): over 24 orders of magnitude

O=C(O)CN(CC(=O)O)CC(=O)O [NTA]
Log K1 with thorium(IV) [1]: 16.9

O=C(O)CN(CCN(CC(=O)O)CC(=O)O)CCN(CC(=O)O)CC(=O)O [DTPA]
log β011 [3]: 10.45
log β012 [3]: 18.98
log β013 [3]: 23.26
log β014 [3]: 25.91
log β015 [3]: 27.73
Log K1 with thorium(IV) [1]: 30.34
log β110 with Th [1]: 28.78
log β111 with Th [1]: 30.94
